Assay [1] concerns the target hsFATP4 (Homo sapiens, UniProt Q6P1M0). As to the kind of experiment: BODIPY-FA. The assay is classed as cell-based. To be noted: hsFATP4 cells.
Assay [2] addresses T1, hsFATP5 (Homo sapiens, UniProt Q9Y2P5).
T1 sequence (Q9Y2P5 1-690): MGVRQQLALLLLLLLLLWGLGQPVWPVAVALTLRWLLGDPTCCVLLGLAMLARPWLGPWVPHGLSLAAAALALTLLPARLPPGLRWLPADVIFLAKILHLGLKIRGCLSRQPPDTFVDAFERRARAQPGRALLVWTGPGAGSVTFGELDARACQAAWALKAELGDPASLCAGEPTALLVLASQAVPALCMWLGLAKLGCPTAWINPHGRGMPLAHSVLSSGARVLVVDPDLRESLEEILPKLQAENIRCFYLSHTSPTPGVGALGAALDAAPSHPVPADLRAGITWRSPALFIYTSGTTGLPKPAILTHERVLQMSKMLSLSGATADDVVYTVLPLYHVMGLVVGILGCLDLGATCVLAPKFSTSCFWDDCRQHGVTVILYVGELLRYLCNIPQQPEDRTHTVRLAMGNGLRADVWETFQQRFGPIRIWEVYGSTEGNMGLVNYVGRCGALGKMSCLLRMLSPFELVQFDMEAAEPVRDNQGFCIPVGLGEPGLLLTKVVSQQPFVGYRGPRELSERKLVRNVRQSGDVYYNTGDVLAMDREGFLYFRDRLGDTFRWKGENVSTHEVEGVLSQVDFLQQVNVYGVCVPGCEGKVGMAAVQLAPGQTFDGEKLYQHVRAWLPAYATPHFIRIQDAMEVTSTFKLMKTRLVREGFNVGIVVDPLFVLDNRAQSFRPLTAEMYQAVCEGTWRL
The assay can be described thus: BODIPY-FA. It is filed as cell-based. The following applies: hsFATP5 cells, data not shown.

Assay [3] deals with undifferentiated 3T3-L1 preadipocytes. As to the kind of experiment: BODIPY-FA uptake in undifferentiated 3T3-L1 preadipocytes/fibroblasts, FLIPR. It is filed as cell-based, murine.
The test system of assay [4] is 3T3-L1 adipocytes. As to the kind of experiment: LCFA. The assay is classed as cell-based, murine. The following applies: insulin 0.2 – 1.7 uM.

Entries after “also recorded” stand apart in the source; their conditions may differ.

Sequence of hsFATP4 (Q6P1M0 whole entry): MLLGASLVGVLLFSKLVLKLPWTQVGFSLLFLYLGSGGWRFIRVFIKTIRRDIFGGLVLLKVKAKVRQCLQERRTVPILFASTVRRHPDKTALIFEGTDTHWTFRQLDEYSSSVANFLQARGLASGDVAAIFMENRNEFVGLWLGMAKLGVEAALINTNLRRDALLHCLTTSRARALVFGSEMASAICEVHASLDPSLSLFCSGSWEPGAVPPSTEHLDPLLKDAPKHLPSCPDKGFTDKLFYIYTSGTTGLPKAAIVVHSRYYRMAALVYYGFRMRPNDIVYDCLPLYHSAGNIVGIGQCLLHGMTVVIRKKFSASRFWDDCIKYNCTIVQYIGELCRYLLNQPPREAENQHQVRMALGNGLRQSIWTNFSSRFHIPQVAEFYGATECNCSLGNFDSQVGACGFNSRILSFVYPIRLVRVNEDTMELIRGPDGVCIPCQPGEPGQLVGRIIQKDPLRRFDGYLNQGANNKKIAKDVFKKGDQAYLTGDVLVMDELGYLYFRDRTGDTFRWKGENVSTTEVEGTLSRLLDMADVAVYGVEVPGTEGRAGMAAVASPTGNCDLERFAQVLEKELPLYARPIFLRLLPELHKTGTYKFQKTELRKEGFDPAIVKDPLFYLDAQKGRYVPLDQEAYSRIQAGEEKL

As to `CCCCCCCCCCCCCCCC(=O)O` [palmitic acid], the “inhibition of fatty acid uptake by FATP4 (in words)” value in assay [1] (FLIPR concentration-response) was “did not inhibit”. The “inhibition of fatty acid uptake by FATP5 (in words)” value in assay [2] is reported as “did not inhibit”.
On to `C[C@H](CCC(=O)O)[C@H]1CC[C@H]2[C@@H]3[C@@H](O)C[C@@H]4C[C@H](O)CC[C@]4(C)[C@H]3CC[C@]12C` [ursodiol, ursodeoxycholic acid], for which the “increase of fatty acid uptake signal by hsFATP4 at high concentration (in words)” value in assay [1] (FLIPR) is “apparent signal increase at 100 uM”.
Consider “insulin: adipogenic hormone insulin, enhances LCFA uptake in adipocytes”, for which the “effect on uptake in undifferentiated 3T3-L1 preadipocytes/fibroblasts” value in assay [3] is “much weaker effects; also recorded: minimal effect”. For the same compound, the “maximal insulin-induced uptake over the baseline of adipocytes” value in assay [4] is given as “about two- to three-fold”.

(Values after paper PMC2887688 (Journal of biomolecular screening, 2010).)
